# In patent US20230265151A1, “GIP/GLP1 CO-AGONIST COMPOUNDS” (priority 2020, published 2023):
# Like-named read-outs stand apart in the source and are kept apart here.
# Legend:
# hGLP-1R = hGLP-1R (Homo sapiens, UniProt P43220); experiment: Functional cAMP formation (HTRF) in HEK-293 clonal cells expressing hGLP-1R, 0.1% bovine casein, without or with 1.0% human serum albumin; assay type: cell-based; set-up: expressed in transfected cells; details: for EC50: geometric mean, read-out: hGLP-1R EC50, nM (SEM, n); for Emax: read-out: hGLP-1R Emax, % ± SEM
# How it was run: (§1)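 Readings of the HTRF 665/620 nm ratio, which falls as cAMP rises, were converted to nM cAMP using a standard curve after 30 min peptide exposure at 37° C.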
# [1] = molecular target: T1, human GIP receptor (hGIPR) (Homo sapiens, UniProt P48546); experiment: [125I]-GIP binding, SPA with membranes of CHO cells expressing hGIPR; details: human GIPR; geometric mean (SEM, n); read-out: Binding Affinity Ki, nM (SEM, n) hGIPR
# T1 construct: expressed in transfected cells; crude membranes
# T1 sequence (P48546 22-466): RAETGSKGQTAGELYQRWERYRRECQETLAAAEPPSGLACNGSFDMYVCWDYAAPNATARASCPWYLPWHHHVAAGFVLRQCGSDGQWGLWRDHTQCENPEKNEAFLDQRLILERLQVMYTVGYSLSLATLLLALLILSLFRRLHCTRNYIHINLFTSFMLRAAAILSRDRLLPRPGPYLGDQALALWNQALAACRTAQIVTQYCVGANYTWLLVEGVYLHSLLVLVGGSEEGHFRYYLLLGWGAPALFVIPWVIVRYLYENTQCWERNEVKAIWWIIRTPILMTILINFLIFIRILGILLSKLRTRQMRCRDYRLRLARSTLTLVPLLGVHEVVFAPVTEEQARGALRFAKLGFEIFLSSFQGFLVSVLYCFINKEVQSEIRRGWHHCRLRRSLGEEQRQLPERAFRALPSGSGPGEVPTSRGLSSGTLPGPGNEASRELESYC
# Experimental: Two methods are used for the preparation of crude cell membranes.
# Method 1: Frozen cell pellets are lysed on ice in hypotonic buffer containing 50 mM Tris HCl, pH 7.5, and Roche Complete™ Protease Inhibitors with EDTA. […] The homogenate is centrifuged at 4° C. at 1100 × g for 10 minutes. The supernatant is collected and stored on ice while the pellets are resuspended in homogenization buffer and rehomogenized as described above. The homogenate is centrifuged at 1100 × g for 10 minutes. The second supernatant is combined with the first supernatant and centrifuged at 35000 × g for 1 hour at 4° C. The resulting membrane pellet is resuspended in homogenization buffer containing protease inhibitors at approximately 1 to 3 mg/mL, quick frozen in liquid nitrogen and stored as aliquots in a -80° C. freezer until use.
# The homogenate is centrifuged at 4° C. at 1800 × g for 15 minutes. The supernatant is collected and stored on ice while the pellets are resuspended in homogenization buffer (without DNAse I) and rehomogenized as described above. The homogenate is centrifuged at 1800 × g for 15 minutes. The second supernatant is combined with the first supernatant and centrifuged an additional time at 1800 × g for 15 minutes. The overall supernatant is then centrifuged at 25000 × g for 30 minutes at 4° C. The resulting membrane pellet is resuspended in homogenization buffer (without DNAse I) containing protease inhibitors at approximately 1 to 3 mg/mL and stored as aliquots in a -80° C. freezer until use.
# The binding buffer contains 25 mM HEPES, pH 7.4, 2.5 mM CaCl2, 1 mM MgCl2, 0.1% (w/v) bacitracin, 0.003% (w/v) TWEEN®-20, and Roche Complete™ Protease Inhibitors without EDTA. Peptides and GIP are thawed and 3 fold serially diluted in 100% DMSO (10 point concentration response curves). […] Plates are sealed and mixed on a plate shaker (setting 6) for 1 minute and read with a PerkinElmer Trilux MicroBeta® scintillation counter after 2.5 to 12 hours of incubation/settling time at room temperature.
# Raw CPM data for concentration curves of peptides, Gcg, GLP-1, or GIP are converted to percent inhibition by subtracting nonspecific binding (binding in the presence of excess unlabeled Gcg, GLP-1, or GIP, respectively) from the individual CPM values and dividing by the total binding signal, also corrected by subtracting nonspecific binding. Data are analyzed using four-parameter (curve maximum, curve minimum, IC50, Hill slope) nonlinear regression routines (Genedata Screener, version 12.0.4, Genedata AG, Basal, Switzerland). […] Values for Ki are reported as the geometric mean, with error expressed as the standard error of the mean (SEM) and n is equal to the number of independent replicates (determined in assays performed on different days). Geometric Means are calculated as follows: […]
# The Ki Ratio (Ki for native control peptide/Ki for test compound) at each receptor and each species is calculated. The Ki Ratio is a rapid indication of the apparent affinity of a peptide compared to the native control peptide.
# n=⅟x means that only one value out of the total number of replicates (x) is used to express the mean. SEM is only calculated when n=2 or greater non-qualified results exist. Means are expressed as GeoMetric means with the standard error of the mean (SEM) and the number of replicates (n) indicated in parenthesis.
# hGIPR = molecular target: T2, hGIPR (Homo sapiens, UniProt P48546); experiment: Functional cAMP formation (HTRF) in HEK-293 clonal cells expressing hGIPR, 0.1% bovine casein, without or with 1.0% human serum albumin; assay type: cell-based; details: for EC50: geometric mean, read-out: hGIPR EC50, nM (SEM, n); for Emax: read-out: hGIPR Emax, % ± SEM
# T2 construct: expressed in transfected cells
# T2 sequence (P48546 22-466): T1 sequence (P48546 22-466)
# How it was run: as §1
# hGCGR = molecular target: T3, hGCGR (Homo sapiens, UniProt P47871); experiment: Functional cAMP formation (HTRF) in HEK-293 clonal cells expressing hGCGR, 0.1% bovine casein, without or with 1.0% human serum albumin; assay type: cell-based; details: geometric mean, read-out: hGCGR EC50, nM (SEM, n)
# T3 construct: expressed in transfected cells
# How it was run: as §1
# [2] = 0.1% bovine casein and 1.0% human serum albumin, 37° C.
# [3] = cAMP, incubated at 37° C., 0.1% bovine casein (no human serum albumin)
# [4] = HEK293, 0.1% bovine casein and 1.0% human serum albumin, 37° C., percent of maximal response to GIP(1-42)NH2
# [5] = HEK293, percent of maximal response to GIP(1-42)NH2, 37° C., 0.1% bovine casein, arithmetic mean
# T3 sequence (P47871 26-477): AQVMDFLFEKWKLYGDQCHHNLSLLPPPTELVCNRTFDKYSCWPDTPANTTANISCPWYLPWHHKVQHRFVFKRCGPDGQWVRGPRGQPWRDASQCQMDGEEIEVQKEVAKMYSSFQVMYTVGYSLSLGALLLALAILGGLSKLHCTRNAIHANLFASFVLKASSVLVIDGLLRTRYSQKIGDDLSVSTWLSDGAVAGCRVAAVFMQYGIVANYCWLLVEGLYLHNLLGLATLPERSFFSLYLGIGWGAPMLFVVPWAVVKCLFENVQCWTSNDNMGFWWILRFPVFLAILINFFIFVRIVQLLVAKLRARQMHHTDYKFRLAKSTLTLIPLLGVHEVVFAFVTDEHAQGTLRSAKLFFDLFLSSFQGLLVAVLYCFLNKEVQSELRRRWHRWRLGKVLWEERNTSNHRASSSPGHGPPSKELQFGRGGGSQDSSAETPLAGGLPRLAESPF
# Sequence of hGLP-1R (P43220 24-463): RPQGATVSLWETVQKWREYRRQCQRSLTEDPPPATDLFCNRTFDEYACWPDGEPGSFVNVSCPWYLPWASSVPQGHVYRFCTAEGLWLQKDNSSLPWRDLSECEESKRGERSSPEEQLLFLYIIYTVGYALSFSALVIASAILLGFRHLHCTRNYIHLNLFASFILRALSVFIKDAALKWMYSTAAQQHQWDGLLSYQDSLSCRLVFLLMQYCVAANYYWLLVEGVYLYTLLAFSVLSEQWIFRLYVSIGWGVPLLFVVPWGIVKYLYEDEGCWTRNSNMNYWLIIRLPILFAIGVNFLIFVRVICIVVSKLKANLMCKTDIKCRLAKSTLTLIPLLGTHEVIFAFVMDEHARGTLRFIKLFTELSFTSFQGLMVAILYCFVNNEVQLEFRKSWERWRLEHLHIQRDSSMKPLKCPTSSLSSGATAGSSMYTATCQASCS
SMILES,EC50 (hGLP-1R; [2]) [nM],EC50 (hGLP-1R; [3]) [nM],Ki [1] [nM],EC50 (hGIPR; [2]) [nM],EC50 (hGIPR; [3]) [nM],EC50 (hGCGR; [2]) [nM],EC50 (hGCGR; [3]) [nM],Emax (hGIPR; [4]) [%],Emax (hGIPR; [5]) [%],"Emax (hGLP-1R; HEK293, 0.1% bovine casein and 1.0% human serum albumin, 37° C., percent of maximal response to GLP-1(7-36)NH2) [%]","Emax (hGLP-1R; HEK293, percent of maximal response to GLP-1(7-36)NH2, 37° C., 0.1% bovine casein, arithmetic mean) [%]"
CC[C@H](C)[C@H](NC(=O)[C@H](CC(C)C)NC(=O)[C@](C)(Cc1ccc(O)cc1)NC(=O)[C@@H](CCC(=O)O)NC(=O)[C@@H](NC(=O)[C@H](Cc1ccccc1)NC(=O)[C@H](CCC(=O)O)NC(=O)C(C)(C)NC(=O)[C@H](CCC(N)=O)NC(=O)[C@H](C)NC(=O)[C@H](CCCCNC(=O)[C@@H](N)CCCCNC(=O)[C@@H](N)CCCCNC(=O)CC[C@H](NC(=O)CCCCCCCCCCCCC(=O)O)C(=O)O)NC(=O)[C@H](CCCN)NC(=O)[C@H](CC(=O)O)NC(=O)[C@H](CC(C)C)NC(=O)[C@](C)(CC(C)C)NC(=O)[C@@H](NC(=O)[C@H](CO)NC(=O)[C@H](Cc1ccncc1)NC(=O)[C@H](CC(=O)O)NC(=O)[C@H](CO)NC(=O)[C@@H](NC(=O)[C@](C)(Cc1ccccc1F)NC(=O)[C@@H](NC(=O)CNC(=O)[C@H](CCC(=O)O)NC(=O)C(C)(C)NC(=O)[C@@H](N)Cc1ccc(O)cc1)[C@@H](C)O)[C@@H](C)O)[C@@H](C)CC)[C@@H](C)CC)C(=O)N[C@@H](CCC(=O)O)C(=O)NCC(=O)NCC(=O)N[C@@H](CCCCNC(=O)[C@@H](N)CCCCNC(=O)[C@@H](N)CCCCNC(=O)CC[C@H](NC(=O)CCCCCCCCCCCCC(=O)O)C(=O)O)C(=O)N[C@@H](CO)C(=O)N[C@@H](CO)C(=O)NCC(=O)N[C@@H](C)C(=O)N1CCC[C@H]1C(=O)N1CCC[C@H]1C(=O)N1CCC[C@H]1C(=O)N[C@@H](CO)C(N)=O [Example 40],6.69,0.279,0.163,0.301,0.0116,> 9950,> 9950,–,–,–,–
CC[C@H](C)[C@H](NC(=O)[C@H](CC(C)C)NC(=O)[C@](C)(Cc1ccc(O)cc1)NC(=O)[C@@H](CCC(=O)O)NC(=O)[C@@H](NC(=O)[C@H](Cc1ccccc1)NC(=O)[C@H](CCC(=O)O)NC(=O)C(C)(C)NC(=O)[C@H](CCC(N)=O)NC(=O)[C@H](C)NC(=O)[C@H](CCCCNC(=O)COCCOCCNC(=O)COCCOCCNC(=O)CC[C@H](NC(=O)CCCCCCCCCCCCC(=O)O)C(=O)O)NC(=O)[C@H](CCCN)NC(=O)[C@H](CC(=O)O)NC(=O)[C@H](CC(C)C)NC(=O)[C@](C)(CC(C)C)NC(=O)[C@@H](NC(=O)[C@H](CO)NC(=O)[C@H](CCc1ccc(O)cc1)NC(=O)[C@H](CC(=O)O)NC(=O)[C@H](CO)NC(=O)[C@@H](NC(=O)[C@](C)(Cc1ccccc1F)NC(=O)[C@@H](NC(=O)CNC(=O)[C@H](CCC(=O)O)NC(=O)C(C)(C)NC(=O)[C@@H](N)Cc1ccc(O)cc1)[C@@H](C)O)[C@@H](C)O)[C@@H](C)CC)[C@@H](C)CC)C(=O)N[C@@H](CCC(=O)O)C(=O)NCC(=O)NCC(=O)N[C@@H](CCCCNC(=O)COCCOCCNC(=O)COCCOCCNC(=O)CC[C@H](NC(=O)CCCCCCCCCCCCC(=O)O)C(=O)O)C(=O)N[C@@H](CO)C(=O)N[C@@H](CO)C(=O)NCC(=O)N[C@@H](C)C(=O)N1CCC[C@H]1C(=O)N1CCC[C@H]1C(=O)N1CCC[C@H]1C(=O)N[C@@H](CO)C(N)=O [Example 59],–,0.202,0.171,–,0.024,> 9950,> 9950,90.3 ± 3.64,89.2 ± 4.62,–,–
CCCC[C@H](NC(=O)[C@H](CC(=O)O)NC(=O)[C@H](CO)NC(=O)[C@@H](NC(=O)[C@](C)(Cc1ccccc1F)NC(=O)[C@@H](NC(=O)CNC(=O)[C@H](CCC(=O)O)NC(=O)C(C)(C)NC(=O)[C@@H](N)Cc1ccc(O)cc1)[C@@H](C)O)[C@@H](C)O)C(=O)N[C@@H](CO)C(=O)N[C@H](C(=O)N[C@@](C)(CC(C)C)C(=O)N[C@@H](CC(C)C)C(=O)N[C@@H](CC(=O)O)C(=O)N[C@@H](CCCN)C(=O)N[C@@H](CCCCNC(=O)COCCOCCNC(=O)COCCOCCNC(=O)CC[C@H](NC(=O)CCCCCCCCCCCCC(=O)O)C(=O)O)C(=O)N[C@@H](C)C(=O)N[C@@H](CCC(N)=O)C(=O)NC(C)(C)C(=O)N[C@@H](CCC(=O)O)C(=O)N[C@@H](Cc1ccccc1)C(=O)N[C@H](C(=O)N[C@H](CCC(=O)O)C(=O)N[C@@](C)(Cc1ccc(O)cc1)C(=O)N[C@@H](CC(C)C)C(=O)N[C@H](C(=O)N[C@@H](CCC(=O)O)C(=O)NCC(=O)NCC(=O)N[C@@H](CCCCNC(=O)COCCOCCNC(=O)COCCOCCNC(=O)CC[C@H](NC(=O)CCCCCCCCCCCCC(=O)O)C(=O)O)C(=O)N[C@@H](CO)C(=O)N[C@@H](CO)C(=O)NCC(=O)N[C@@H](C)C(=O)N1CCC[C@H]1C(=O)N1CCC[C@H]1C(=O)N1CCC[C@H]1C(=O)N[C@@H](CO)C(N)=O)[C@@H](C)CC)[C@@H](C)CC)[C@@H](C)CC [Example 60],–,0.19,0.11,1.2,–,> 9950,> 9950,89.4 ± 4.57,94 ± 6.07,111 ± 3.97,97.2 ± 4.28
